For assay [1], the system named is Oncorhynchus masou. Briefly: Inhibition of cherry salmon DNA polymerase delta at 100 uM.
The subject of assay [2] is Escherichia coli. The experiment in a line: Inhibition of Escherichia coli DNA polymerase 1 Klenow fragment at 100 uM.
Assay [3] has as its target Polynucleotide kinase (Enterobacteria phage T4) (UniProt P06855). Briefly: Inhibition of T4 polynucleotide kinase at 100 uM relative to control. The settings on record: Tequatrovirus T4.
Assay [4] addresses T1, DNA topoisomerase 1 (Homo sapiens) (UniProt P11387).
T1 sequence (whole entry): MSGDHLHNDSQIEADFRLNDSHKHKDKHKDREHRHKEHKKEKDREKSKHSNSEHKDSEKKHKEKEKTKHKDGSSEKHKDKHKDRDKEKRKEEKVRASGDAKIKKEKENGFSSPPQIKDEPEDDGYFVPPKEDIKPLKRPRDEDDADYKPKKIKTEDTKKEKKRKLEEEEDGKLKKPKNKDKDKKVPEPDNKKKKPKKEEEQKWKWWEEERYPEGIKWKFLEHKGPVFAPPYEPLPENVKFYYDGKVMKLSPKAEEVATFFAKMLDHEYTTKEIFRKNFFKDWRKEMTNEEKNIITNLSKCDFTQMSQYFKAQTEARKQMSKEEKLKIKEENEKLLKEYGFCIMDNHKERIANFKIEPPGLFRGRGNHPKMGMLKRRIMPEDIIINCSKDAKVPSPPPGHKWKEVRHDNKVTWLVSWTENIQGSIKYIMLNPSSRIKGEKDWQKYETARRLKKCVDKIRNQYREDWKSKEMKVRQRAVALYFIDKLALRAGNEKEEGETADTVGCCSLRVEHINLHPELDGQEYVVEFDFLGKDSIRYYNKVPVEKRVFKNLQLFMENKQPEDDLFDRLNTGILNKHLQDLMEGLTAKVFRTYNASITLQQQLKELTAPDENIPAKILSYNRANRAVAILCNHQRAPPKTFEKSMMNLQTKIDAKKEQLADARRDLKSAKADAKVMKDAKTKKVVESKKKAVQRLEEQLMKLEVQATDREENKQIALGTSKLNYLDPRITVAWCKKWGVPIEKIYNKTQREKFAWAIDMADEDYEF
The experiment in a line: Inhibition of human DNA topoisomerase 1 at 100 uM relative to control.

The target of assay [5] is Inosine-5'-monophosphate dehydrogenase 2 (Mus musculus) (UniProt P24547). Briefly: Inhibition of mouse IMP dehydrogenase 2 at 100 uM relative to control.
Assay [6] concerns the target Deoxyribonuclease-1 (Bos taurus) (UniProt P00639). The experiment in a line: Inhibition of bovine deoxyribonuclease 1 at 100 uM relative to control.
The target of assay [7] is Telomerase reverse transcriptase (Homo sapiens) (UniProt O14746). Briefly: Inhibition of human telomerase at 100 uM relative to control.
The subject of assay [8] is Brassica oleracea. The experiment in a line: Inhibition of cauliflower DNA polymerase alpha at 100 uM.
In assay [9] the test system is Tequatrovirus T4. Briefly: Inhibition of T4 DNA polymerase at 100 uM.
The subject of assay [10] is Escherichia phage T7. Briefly: Inhibition of T7 RNA polymerase […] at 100 uM relative to control.
The target in assay [11] is Human immunodeficiency virus type 1 reverse transcriptase (Human immunodeficiency virus 1) (UniProt Q72547). Briefly: Inhibition of HIV1 reverse transcriptase at 100 uM relative to control.
The species named for assay [12] is Bos taurus. The experiment in a line: Inhibition of calf DNA polymerase alpha at 100 uM relative to control.
Assay [13] has as its target T2, DNA polymerase subunit gamma-1 (Homo sapiens) (UniProt P54098).
T2 sequence (whole entry): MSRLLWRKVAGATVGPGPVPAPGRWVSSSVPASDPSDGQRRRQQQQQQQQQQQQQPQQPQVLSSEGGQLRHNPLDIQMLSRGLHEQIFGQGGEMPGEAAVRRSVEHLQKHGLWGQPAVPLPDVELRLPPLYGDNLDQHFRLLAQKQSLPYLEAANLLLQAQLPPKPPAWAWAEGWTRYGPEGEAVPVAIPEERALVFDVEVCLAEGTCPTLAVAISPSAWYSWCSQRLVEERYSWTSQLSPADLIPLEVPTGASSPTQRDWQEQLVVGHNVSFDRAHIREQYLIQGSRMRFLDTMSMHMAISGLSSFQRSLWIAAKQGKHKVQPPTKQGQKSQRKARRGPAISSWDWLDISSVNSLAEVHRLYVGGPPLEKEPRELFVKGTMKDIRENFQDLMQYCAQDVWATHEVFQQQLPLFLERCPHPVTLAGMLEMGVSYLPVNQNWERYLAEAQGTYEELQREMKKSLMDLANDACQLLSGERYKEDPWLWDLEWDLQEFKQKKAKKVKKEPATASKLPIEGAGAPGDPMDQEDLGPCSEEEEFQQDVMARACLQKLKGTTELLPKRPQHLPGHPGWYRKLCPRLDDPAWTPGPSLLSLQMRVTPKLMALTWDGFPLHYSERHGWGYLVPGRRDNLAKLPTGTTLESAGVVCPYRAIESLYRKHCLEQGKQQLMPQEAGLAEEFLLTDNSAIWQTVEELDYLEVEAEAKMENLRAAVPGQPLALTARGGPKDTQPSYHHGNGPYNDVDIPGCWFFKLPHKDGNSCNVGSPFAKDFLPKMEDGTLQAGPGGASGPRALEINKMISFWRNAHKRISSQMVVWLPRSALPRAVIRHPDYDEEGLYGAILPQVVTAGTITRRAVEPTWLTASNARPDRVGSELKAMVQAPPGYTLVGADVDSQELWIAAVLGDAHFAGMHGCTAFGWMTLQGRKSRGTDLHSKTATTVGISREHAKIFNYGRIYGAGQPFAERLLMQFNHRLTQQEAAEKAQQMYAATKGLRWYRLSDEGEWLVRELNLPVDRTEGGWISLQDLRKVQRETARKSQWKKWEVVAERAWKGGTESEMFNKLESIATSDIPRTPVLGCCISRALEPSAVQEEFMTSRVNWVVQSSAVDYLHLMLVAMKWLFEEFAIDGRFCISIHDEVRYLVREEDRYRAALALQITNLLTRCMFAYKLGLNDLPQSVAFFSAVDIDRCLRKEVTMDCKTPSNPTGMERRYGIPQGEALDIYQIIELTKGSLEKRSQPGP
The experiment in a line: Inhibition of human DNA polymerase gamma at 100 uM.

The target in assay [14] is DNA nucleotidylexotransferase (Bos taurus) (UniProt P06526). The experiment in a line: Inhibition of calf terminal deoxynucleotidyl transferase.
In assay [15] the target is DNA polymerase beta (Rattus norvegicus, UniProt P06766). The experiment in a line: Inhibition of rat DNA polymerase beta.
Assay [16] concerns Thermus aquaticus. The experiment in a line: Inhibition of Thermus aquaticus DNA polymerase at 100 uM.
Assay [17] addresses DNA topoisomerase 2-alpha (Homo sapiens) (UniProt P11388). The experiment in a line: Inhibition of human DNA topoisomerase 2 at 100 uM relative to control.
In assay [18] the target is T3, DNA polymerase subunit gamma-1 (Homo sapiens, UniProt P54098).
T3 sequence (P54098 whole entry): T2 sequence (whole entry)
The experiment in a line: Inhibition of human DNA polymerase gamma.

Assay [19] has as its target DNA polymerase beta (Rattus norvegicus) (UniProt P06766). The experiment in a line: Inhibition of rat DNA polymerase beta at 100 uM.

Calls of active or inactive are those of the source. The rule behind the calls is not given here.

Sequence of Inosine-5'-monophosphate dehydrogenase 2 (Mus musculus) (P24547 whole entry, looked up): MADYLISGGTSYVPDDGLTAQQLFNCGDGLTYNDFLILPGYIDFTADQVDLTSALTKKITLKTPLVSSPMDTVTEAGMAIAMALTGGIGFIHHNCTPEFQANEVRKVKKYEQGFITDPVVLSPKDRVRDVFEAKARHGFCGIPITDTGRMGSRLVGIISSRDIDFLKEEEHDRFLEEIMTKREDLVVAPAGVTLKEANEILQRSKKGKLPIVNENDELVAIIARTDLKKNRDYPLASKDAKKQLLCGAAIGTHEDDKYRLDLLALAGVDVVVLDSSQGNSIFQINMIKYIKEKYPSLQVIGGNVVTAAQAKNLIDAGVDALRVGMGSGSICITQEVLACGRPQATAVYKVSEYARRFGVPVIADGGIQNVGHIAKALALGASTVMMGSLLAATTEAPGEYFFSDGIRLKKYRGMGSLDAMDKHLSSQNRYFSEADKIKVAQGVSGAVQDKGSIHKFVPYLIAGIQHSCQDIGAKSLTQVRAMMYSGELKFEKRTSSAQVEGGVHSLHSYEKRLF
Sequence of DNA topoisomerase 2-alpha (Homo sapiens) (P11388 whole entry): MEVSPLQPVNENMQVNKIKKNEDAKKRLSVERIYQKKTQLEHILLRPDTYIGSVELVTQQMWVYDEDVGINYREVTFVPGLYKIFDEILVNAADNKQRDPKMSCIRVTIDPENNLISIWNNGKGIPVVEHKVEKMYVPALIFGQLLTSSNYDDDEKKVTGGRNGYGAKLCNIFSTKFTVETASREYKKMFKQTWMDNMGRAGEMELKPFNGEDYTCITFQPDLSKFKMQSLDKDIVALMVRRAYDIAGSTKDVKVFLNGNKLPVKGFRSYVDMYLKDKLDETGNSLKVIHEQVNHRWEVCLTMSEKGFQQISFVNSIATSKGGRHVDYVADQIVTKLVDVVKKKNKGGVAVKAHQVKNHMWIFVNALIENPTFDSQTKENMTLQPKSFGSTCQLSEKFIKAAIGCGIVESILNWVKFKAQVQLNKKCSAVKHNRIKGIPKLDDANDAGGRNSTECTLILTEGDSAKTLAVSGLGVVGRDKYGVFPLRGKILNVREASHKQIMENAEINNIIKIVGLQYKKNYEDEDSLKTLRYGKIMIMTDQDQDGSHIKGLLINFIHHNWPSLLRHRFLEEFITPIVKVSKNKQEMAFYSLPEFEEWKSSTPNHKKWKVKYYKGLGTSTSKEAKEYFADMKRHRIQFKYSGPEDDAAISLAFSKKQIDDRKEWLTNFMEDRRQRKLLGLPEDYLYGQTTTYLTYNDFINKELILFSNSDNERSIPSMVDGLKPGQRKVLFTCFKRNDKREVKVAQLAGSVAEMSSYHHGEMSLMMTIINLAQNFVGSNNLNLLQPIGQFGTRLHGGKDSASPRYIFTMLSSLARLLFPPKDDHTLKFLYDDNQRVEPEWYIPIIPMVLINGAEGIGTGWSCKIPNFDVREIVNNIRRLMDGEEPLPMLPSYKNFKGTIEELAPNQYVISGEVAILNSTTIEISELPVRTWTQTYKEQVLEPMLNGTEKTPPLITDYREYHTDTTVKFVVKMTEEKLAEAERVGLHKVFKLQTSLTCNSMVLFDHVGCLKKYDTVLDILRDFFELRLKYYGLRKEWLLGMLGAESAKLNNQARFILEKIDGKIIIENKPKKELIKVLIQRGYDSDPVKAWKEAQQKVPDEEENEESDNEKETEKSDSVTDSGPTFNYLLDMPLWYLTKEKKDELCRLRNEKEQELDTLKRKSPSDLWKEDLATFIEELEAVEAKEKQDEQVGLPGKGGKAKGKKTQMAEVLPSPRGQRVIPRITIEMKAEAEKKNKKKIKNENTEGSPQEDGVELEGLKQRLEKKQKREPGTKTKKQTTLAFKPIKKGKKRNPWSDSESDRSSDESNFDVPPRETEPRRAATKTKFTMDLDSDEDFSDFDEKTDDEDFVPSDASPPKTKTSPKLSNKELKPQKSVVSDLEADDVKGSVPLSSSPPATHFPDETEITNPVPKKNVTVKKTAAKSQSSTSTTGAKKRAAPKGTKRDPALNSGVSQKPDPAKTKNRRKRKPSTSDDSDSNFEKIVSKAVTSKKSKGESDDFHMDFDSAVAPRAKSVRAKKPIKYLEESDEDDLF
Sequence of DNA nucleotidylexotransferase (Bos taurus) (P06526 whole entry): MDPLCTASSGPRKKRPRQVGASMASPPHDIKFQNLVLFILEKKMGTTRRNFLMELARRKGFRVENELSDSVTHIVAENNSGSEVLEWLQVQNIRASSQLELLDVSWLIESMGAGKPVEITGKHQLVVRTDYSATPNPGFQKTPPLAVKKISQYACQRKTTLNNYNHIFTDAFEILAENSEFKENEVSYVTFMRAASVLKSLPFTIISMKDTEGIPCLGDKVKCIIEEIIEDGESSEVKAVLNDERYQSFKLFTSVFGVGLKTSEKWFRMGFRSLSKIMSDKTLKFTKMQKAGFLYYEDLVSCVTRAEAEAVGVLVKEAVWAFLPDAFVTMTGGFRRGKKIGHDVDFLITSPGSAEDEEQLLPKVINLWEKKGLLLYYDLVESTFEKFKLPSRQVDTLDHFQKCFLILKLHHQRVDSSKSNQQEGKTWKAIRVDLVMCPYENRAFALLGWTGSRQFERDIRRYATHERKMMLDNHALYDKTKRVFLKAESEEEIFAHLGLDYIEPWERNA
Sequence of Telomerase reverse transcriptase (Homo sapiens) (O14746 whole entry): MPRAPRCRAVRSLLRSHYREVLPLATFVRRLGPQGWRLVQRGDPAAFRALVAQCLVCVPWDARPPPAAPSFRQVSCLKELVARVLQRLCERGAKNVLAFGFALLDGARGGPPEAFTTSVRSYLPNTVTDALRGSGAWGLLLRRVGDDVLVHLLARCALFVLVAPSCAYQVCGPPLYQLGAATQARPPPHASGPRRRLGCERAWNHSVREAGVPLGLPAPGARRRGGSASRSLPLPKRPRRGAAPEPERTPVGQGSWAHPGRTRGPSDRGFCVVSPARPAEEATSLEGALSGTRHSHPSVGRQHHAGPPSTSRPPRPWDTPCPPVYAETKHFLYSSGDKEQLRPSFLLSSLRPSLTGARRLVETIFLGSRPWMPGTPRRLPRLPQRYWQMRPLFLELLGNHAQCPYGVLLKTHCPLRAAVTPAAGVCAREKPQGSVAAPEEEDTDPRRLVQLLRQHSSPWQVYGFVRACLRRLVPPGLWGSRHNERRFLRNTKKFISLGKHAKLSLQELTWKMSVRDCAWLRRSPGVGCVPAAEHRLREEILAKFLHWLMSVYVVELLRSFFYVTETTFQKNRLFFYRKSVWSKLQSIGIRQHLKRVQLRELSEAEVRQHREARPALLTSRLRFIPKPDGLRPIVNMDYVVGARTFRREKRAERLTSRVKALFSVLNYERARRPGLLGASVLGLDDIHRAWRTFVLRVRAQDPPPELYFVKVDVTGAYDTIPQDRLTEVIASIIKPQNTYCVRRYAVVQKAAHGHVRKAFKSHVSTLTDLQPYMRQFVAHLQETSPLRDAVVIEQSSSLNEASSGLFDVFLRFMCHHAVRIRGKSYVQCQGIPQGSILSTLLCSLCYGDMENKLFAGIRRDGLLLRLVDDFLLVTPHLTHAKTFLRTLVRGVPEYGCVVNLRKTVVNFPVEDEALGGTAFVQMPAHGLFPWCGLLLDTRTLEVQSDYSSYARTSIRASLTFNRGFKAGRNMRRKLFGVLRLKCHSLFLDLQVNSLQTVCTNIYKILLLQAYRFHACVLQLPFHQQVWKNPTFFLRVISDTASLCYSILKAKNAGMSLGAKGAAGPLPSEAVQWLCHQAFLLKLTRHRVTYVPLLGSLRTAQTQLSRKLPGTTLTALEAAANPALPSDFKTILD
Sequence of Polynucleotide kinase (Enterobacteria phage T4) (P06855 whole entry): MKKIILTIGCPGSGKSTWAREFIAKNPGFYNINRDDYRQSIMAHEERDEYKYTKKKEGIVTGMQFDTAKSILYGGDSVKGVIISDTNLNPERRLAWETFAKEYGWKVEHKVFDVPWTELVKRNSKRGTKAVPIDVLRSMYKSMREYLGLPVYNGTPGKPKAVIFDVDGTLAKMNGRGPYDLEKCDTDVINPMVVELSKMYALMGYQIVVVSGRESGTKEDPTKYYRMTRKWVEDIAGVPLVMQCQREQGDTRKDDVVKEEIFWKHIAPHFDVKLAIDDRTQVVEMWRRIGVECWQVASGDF
Sequence of Deoxyribonuclease-1 (Bos taurus) (P00639 whole entry): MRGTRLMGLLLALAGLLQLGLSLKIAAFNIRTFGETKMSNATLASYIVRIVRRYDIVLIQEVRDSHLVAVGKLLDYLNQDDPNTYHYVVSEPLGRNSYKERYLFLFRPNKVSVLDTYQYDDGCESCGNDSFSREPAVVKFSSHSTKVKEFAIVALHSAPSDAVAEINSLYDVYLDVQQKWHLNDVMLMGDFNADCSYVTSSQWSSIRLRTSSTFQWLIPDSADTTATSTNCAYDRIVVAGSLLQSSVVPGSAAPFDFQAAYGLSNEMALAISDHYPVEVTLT

For the molecule `COc1cc(C)c(C(=O)O[C@]2(C)C(=O)C3=C(C=C(/C=C/CO)OC3)C[C@@H]2O)c(O)c1` [KASANOSIN B], the result in assay [1], in assay [2], in [3], in assay [4], in [5] and in [6] was inactive. Besides, the result in assay [7], in assay [8], in assay [9], in [10], in assay [11] and in assay [12] was inactive. Also, the result in assay [14], in assay [16] and in assay [17] was inactive. Besides, the result in assay [13] and in [19] was Active. For the same molecule, the IC50 (in general, the point on the concentration scale where inhibition reaches its midpoint) came out at 60.1 µM in [15] and 72.9 µM in assay [18].

For the molecule `COc1cc(C)c(C(=O)O[C@H]2CC3=C(COC(/C=C/CO)=C3)C(=O)[C@@]2(C)O)c(O)c1` [KASANOSIN A], the outcome in [1], in assay [2], in assay [3], in [4], in assay [5] and in assay [6] was inactive. Also, the result in assay [7], in assay [8], in assay [9], in assay [10], in [11] and in assay [12] was inactive. The result in assay [14], in assay [16] and in [17] was inactive. Besides, the result in [13] and in assay [19] was Active. Further, the IC50 turned out to be 27.3 µM in [15] and 35 µM in assay [18].

The values are drawn from ChEMBL document CHEMBL1149857, “Novel azaphilones, kasanosins A and B, which are specific inhibitors of eukaryotic DNA polymerases beta and lambda from Talaromyces sp” (Bioorg Med Chem, 2008).
